# PMC10998878, “Inhibition of acyl-CoA binding protein (ACBP) by means of a GABAARγ2-derived peptide” (Cell Death & Disease, 2024)
# Entries after “also recorded” stand apart in the source; their conditions may differ.
# Legend:
# [1] = molecular target: T1, recombinant murine ACBP/DBI (Mus musculus, UniProt P31786); test: Surface plasmon resonance (Biacore 2000) real time interaction analysis; assay type: binding; conditions: for interaction with recombinant ACBP/DBI, in words: surface plasmon resonance, HBS-EP pH 7.4, 25 °C, 10 µM and 100 µM peptide
# T1 construct: biotin (biotinylated); purchased Institute of Psychiatry and Neuroscience of Paris, France
# T1 sequence (P31786 1-87): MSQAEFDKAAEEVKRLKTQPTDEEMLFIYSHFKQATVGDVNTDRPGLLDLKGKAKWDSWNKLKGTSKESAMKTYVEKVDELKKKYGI
# Procedure: Kinetics of interaction of recombinant murine ACBP/DBI (Institute of Psychiatry and Neuroscience of Paris, France) with GABAARγ2 -derived eicosapeptide or its mutated derivative (synthesized by Biosynth ltd) was analyzed by surface plasmon resonance-based biosensor system – Biacore 2000 (Cytiva Life Sciences, Biacore, Uppsala, Sweden). SA sensor chip (Cytiva Life Sciences, Biacore) was activated by three consequent injections of 1 M NaCl, 0.05 M NaOH solution. After washing the sensor chip surface, biotinylated ACBP/DBI was immobilized on it. ACBP was diluted in HBS-EP buffer (10 mM HEPES […], 150 mM NaCl, 3 mM EDTA, and 0.005% Tween-20) at final concentration of 10 µg/mL and injected for 5 min contact time. The achieved immobilization density of ACBP was 1600 resonance units.
# All analyses were performed in HBS-EP buffer (0.01 M HEPES pH 7.4, 0.15 M NaCl, 3 mM EDTA, 0.005% v/v Surfactant P20; 0.22 µm filtered and degassed). The system was run at flow rate of 30 μL/min. The temperature on chip surface was set to 25 °C. GABAARγ2-derived eicosapeptide or its mutated derivative (both stocked in DMSO at 1 mg/mL) were diluted in HBS-EP to 10 µM and 100 µM. The peptides were injected over immobilized ACBP/DBI and a control surface (streptavidin alone). The association and dissociation phases of the interaction were followed for 4 and 5 min, respectively. The interaction of peptides with ACBP/DBI was assessed by monitoring the dissociation from the immobilized protein. For visualization of the binding response Graph Pad Prism software was used.
# [2] = test system: native ACBP/DBI protein (mouse liver extracts); test: Pull down / immunoprecipitation of native ACBP/DBI from liver extracts; assay type: binding; conditions: mouse liver protein extract (500 μg), peptide-coated beads, overnight 4 °C, immunoblot for ACBP
# Procedure: The physical interaction between the native ACBP and GABAARγ2 peptides was examined by standard immunoprecipitation (IP) and immunoblotting protocols. In detail, liver protein extracts (500 μg) were immunoprecipitated on protein A/G-Sepharose beads (Merck Millipore, Burlington, MA, USA, #GE17-0618-01) coated with (1× 2× 4×) either GABAARγ2 wild type (WT) or mutated (F77I) eicosapeptide (Biosynth ltd) or its negative control (PBS). Each IP reaction was incubated overnight (4 °C) in a rotation chamber followed by three consecutive rounds of PBS washing the next day. Each washing round included a PBS resuspension of the pellet and a re-centrifugation (12,000 × g, 4 °C). Finally, beads were resuspended in 20 μL of NUPAGE 4× buffer (Life Technologies, CA, USA, #NP0008), heated at 100 °C (10 min), followed by standard immunoblotting for the ACBP protein (Abcam #ab231910).
# Fig. 5 Biophysical and biochemical detection of a direct interaction between ACBP/DBI and the GABAARγ2-derived eicosapeptide. A Schematic representation of the GABAAR and the GABAARγ2-derived eicosapeptides. B Surface plasmon resonance kinetics of ACBP-GABAARγ2-derived eicosapeptide (WT and F77I) interactions. Representative ACBP immunoblot (C) from control- or GABAARγ2-immunoprecipitated samples. Anti-GABAARγ2 immunoprecipitation (IP) assay was employed in order to validate the GABAARγ2 WT peptide interaction with native ACBP (in murine hepatic protein extracts), and quantification (D). […] For statistical analysis p value (indicating statistical comparisons with the control condition) was calculated by Mann–Whitney U-test. E Anti-GABAARγ2 IP assay to address the physical interaction between GABAARγ2 peptides and murine hepatic ACBP protein. Interaction was validated using an increasing gradient of biotinylated WT/F77I peptides that were bound on the surface of streptavidin beads as part of the IP assay. […]
# [3] = test system: GFP-LC3-expressing hepatocytes; test: Hepatocyte autophagy activation (GFP-LC3 dots); assay type: cell-based; conditions: GFP-LC3 mouse hepatocytes, peptide 10 µg/mL, with leupeptin
# Procedure: […] Leupeptin (100 μM) was added 4 h before fixation. Cells were stained with Hoechst 33342 solution (Thermo Scientific™, #62249, 1 µg/mL) and fixed with 4% paraformaldehyde (PFA) solution. Both blue (Hoechst-derived) and green (GFP-LC3-derived) fluorescence were imaged using a Zeiss LSM 710 confocal microscope. Images were analyzed using R software.
# Hepatocytes were isolated from 4 transgenic mice expressing microtubule- associated proteins 1A/1B light chain 3B (hereafter referred to as LC3) fused to green fluorescent protein (GFP) (resulting fusion protein: LC3-GFP) under a ubiquitous promoter. Such oligo- or monocellular hepatocyte suspensions were cultured in the continuous presence of leupeptin at 37°C in the absence (A) or presence (B) of the GABAARγ2- EP- WT […]
# Cells were counterstained with Hoechst
# 33342 and representative fluorescence images are shown (bar size: 10 µm). The number of LC3-GFP+ dots per cells (defined as an area of interest around the 1 or 2 Hoechst 33342- positive nuclei per cell) were determined by image analysis and plotted in C .
# Results are shown as means ± standards of the mean, and statistics were calculated with […]
# C57BL/6 mice = test: Food intake after intravenous injection; assay type: in vivo, mouse; conditions: i.v., RecACBP/DBI 0.5 mg/kg + peptide 5× molar excess (pre-incubated 16 h, 4 °C), cumulative food intake 30 min
# Procedure: Prior to experimentation, mice were subjected to 24 h starvation followed by individual housing and acclimatization in individual cages (2 h). Subsequently, mice were intravenously (i.v.) injected with recombinant ACBP/DBI protein (RecACBP/DBI) (total volume of 200 μL, 0.5 mg/kg body weight), either alone or in combination with GABAARγ2 peptides (5× molar excess). Cumulative food intake was then analyzed as previously described. Prior to i.v. injections, the RecACBP mixes were pre-incubated (16 h, 4 °C) with GABAARγ2 peptides.
# [4] = listed as GABAARγ2-derived eicosapeptide
sequence,measurement,setting,value
INMEYTIDIFFAQTWYDRRL [GABAARγ2-EP-WT],association with immobilized ACBP/DBI (SPR),"[1]; biotinylated recombinant ACBP/DBI on SA chip (1600 RU), peptide 10 µM and 100 µM in HBS-EP, pH 7.4, 25 °C, 30 μL/min, association 4 min, WT vs F77I",associated more rapidly
same,dissociation from immobilized ACBP/DBI (SPR),"[1]; biotinylated recombinant ACBP/DBI on SA chip (1600 RU), peptide 10 µM and 100 µM in HBS-EP, pH 7.4, 25 °C, 30 μL/min, dissociation 5 min, WT vs F77I",dissociated more slowly from ACBP/DBI than GABAARγ2-EP-F77I
same,"interaction with recombinant ACBP/DBI, in words",[1],efficiently interacts with native and recombinant ACBP/DBI; also recorded: able to interact with ACBP/DBI
same,"interaction with recombinant ACBP/DBI, in words",[1]; [4],validated the interaction
same,"pull down of endogenous/native ACBP/DBI, in words",[2],efficiently interacts with native and recombinant ACBP/DBI; also recorded: able to interact with ACBP/DBI
same,"pull down of endogenous/native ACBP/DBI, in words",[2]; [4],validated the interaction
same,capacity to enhance autophagic flux,[3],enhance autophagic flux
same,number of LC3-GFP dots per cell,[3]; confocal microscopy,increased the number of LC3-GFP dots
same,effect on RecACBP/DBI-induced hyperphagy,C57BL/6 mice; n = 4 to 9,abolished; also recorded: efficiently blocked
same,effect on RecACBP/DBI-induced hyperphagy,"C57BL/6 mice; n = 4 to 9, listed as GABAARγ2-derived eicosapeptide",blocked appetite stimulation by recombinant ACBP/DBI in vivo
